In ChEMBL document CHEMBL5360607, “The Hitchhiker's Guide to Deep Learning Driven Generative Chemistry” (ACS Med Chem Lett, 2023):
pEC50, pIC50, pKi: −log10 of the molar value.

Legend:
[1] = target: T1, Macrophage colony-stimulating factor 1 receptor (Homo sapiens, UniProt P07333); assay: Inhibition of CSF1R (unknown origin)
[2] = target: Fibroblast growth factor receptor 1 (Homo sapiens, UniProt P11362); assay: Inhibition of FGFR1 (unknown origin)
[3] = target: Fibroblast growth factor receptor 2 (Homo sapiens, UniProt P21802); assay: Inhibition of FGFR2 (unknown origin)
Chain of Fibroblast growth factor receptor 2 (P21802 whole entry): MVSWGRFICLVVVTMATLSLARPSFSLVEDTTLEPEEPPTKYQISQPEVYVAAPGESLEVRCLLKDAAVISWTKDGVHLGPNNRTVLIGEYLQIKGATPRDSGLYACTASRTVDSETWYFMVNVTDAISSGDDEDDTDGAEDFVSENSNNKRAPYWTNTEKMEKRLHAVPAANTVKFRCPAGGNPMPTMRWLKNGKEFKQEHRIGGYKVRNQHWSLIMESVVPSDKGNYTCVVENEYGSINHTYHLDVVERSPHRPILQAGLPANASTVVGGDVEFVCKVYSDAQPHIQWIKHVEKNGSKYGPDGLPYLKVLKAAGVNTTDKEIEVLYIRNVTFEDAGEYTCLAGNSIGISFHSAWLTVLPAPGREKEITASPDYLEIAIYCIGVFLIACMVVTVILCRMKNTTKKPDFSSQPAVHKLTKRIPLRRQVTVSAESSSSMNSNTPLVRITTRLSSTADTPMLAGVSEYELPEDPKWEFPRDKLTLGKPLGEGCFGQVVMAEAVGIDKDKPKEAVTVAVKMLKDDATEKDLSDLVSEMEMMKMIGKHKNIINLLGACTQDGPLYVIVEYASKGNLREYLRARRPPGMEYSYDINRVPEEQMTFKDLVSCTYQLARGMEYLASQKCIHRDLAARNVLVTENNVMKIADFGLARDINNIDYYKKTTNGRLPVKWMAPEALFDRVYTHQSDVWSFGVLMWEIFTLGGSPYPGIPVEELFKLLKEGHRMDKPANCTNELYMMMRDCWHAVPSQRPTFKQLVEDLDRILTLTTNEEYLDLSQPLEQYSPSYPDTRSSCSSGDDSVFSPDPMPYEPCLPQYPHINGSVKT

[4] = target: Fibroblast growth factor receptor 3 (Homo sapiens, UniProt P22607); assay: Inhibition of FGFR3 (unknown origin)
[5] = target: Fibroblast growth factor receptor 4 (Homo sapiens, UniProt P22455); assay: Inhibition of FGFR4 (unknown origin)
[6] = target: Serine/threonine-protein kinase B-raf (Homo sapiens, UniProt P15056); assay: Inhibition of BRAF (unknown origin)
Chain of Serine/threonine-protein kinase B-raf (P15056 whole entry): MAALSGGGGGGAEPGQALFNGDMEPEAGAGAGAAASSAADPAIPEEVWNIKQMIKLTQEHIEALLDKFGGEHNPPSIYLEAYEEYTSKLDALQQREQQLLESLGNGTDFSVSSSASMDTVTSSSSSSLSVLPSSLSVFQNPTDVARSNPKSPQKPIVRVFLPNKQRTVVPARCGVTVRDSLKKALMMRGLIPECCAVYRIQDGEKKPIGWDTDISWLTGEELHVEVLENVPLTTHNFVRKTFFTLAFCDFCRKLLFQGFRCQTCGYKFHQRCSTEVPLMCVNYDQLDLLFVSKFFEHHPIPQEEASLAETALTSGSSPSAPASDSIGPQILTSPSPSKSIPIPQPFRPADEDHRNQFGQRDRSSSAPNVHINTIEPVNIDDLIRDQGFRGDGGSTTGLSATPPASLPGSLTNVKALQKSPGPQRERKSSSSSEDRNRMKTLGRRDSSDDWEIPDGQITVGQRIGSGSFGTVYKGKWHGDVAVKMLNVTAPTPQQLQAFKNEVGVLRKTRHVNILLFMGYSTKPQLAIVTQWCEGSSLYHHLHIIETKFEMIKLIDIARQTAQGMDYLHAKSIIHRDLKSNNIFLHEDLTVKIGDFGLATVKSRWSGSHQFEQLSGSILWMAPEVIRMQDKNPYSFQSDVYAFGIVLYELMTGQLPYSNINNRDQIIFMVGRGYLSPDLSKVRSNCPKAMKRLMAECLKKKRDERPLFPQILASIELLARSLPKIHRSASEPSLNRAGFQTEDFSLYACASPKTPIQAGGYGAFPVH

[7] = target: T2, Receptor-type tyrosine-protein kinase FLT3 (Homo sapiens, UniProt P36888); assay: Inhibition of FLT3 (unknown origin)
T2 sequence (P36888 whole entry): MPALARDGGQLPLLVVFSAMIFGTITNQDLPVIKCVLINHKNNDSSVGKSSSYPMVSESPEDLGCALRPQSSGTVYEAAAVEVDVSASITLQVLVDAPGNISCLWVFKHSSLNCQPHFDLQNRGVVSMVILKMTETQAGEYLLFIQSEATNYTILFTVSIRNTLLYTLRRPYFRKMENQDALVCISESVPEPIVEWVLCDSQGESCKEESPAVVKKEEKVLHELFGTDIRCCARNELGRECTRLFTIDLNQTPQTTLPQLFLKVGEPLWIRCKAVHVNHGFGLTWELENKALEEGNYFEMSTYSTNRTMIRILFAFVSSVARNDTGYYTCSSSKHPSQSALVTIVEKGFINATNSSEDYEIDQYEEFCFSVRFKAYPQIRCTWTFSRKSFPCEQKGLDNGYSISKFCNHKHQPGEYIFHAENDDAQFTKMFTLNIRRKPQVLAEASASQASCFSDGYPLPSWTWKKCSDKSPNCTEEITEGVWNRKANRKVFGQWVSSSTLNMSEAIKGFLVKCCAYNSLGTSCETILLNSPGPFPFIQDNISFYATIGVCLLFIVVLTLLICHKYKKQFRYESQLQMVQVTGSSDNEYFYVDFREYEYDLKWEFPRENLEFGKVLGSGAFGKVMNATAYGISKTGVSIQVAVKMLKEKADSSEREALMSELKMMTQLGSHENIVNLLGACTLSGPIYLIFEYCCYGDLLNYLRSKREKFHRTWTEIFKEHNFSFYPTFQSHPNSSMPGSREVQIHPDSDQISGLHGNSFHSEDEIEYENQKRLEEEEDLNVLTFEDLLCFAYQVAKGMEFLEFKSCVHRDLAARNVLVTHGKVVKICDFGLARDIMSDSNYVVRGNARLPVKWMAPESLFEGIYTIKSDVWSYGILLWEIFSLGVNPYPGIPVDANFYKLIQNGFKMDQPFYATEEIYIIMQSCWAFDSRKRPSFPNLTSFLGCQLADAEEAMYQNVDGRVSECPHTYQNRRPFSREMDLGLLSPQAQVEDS

[8] = target: Receptor-type tyrosine-protein kinase FLT3 (Homo sapiens, UniProt P36888, D835Y); assay: Inhibition of FLT3 D835Y (unknown origin)
[9] = target: T3, High affinity nerve growth factor receptor (Homo sapiens, UniProt P04629); assay: Inhibition of TRKA (unknown origin) at 10 uM relative to control
[10] = species on record: Homo sapiens; assay: Inhibition of FLT (unknown origin) at 10 uM relative to control
[11] = target: Maternal embryonic leucine zipper kinase (Homo sapiens) (UniProt Q14680); assay: Inhibition of MELK (unknown origin) at 10 uM relative to control
[12] = target: Fibroblast growth factor receptor (Homo sapiens) (UniProt P22607+P11362+P22455+P21802); assay: Inhibition of FGFR (unknown origin) at 10 uM relative to control; format: protein assay
[13] = target: Protein kinase C (PKC) (Homo sapiens) (UniProt O94806+P41743+P17252+P05129+Q05655+P05771+Q05513+Q02156+P24723+Q15139+Q04759); assay: Inhibition of PKC (unknown origin) at 10 uM relative to control; format: protein assay
[14] = target: T3, High affinity nerve growth factor receptor; assay: Inhibition of TRKA (unknown origin)
[15] = target: Tyrosine-protein kinase JAK2 (Homo sapiens) (UniProt O60674); assay: Inhibition of JAK2 (unknown origin) at 1 uM relative to control
Chain of Tyrosine-protein kinase JAK2 (Homo sapiens) (O60674 whole entry): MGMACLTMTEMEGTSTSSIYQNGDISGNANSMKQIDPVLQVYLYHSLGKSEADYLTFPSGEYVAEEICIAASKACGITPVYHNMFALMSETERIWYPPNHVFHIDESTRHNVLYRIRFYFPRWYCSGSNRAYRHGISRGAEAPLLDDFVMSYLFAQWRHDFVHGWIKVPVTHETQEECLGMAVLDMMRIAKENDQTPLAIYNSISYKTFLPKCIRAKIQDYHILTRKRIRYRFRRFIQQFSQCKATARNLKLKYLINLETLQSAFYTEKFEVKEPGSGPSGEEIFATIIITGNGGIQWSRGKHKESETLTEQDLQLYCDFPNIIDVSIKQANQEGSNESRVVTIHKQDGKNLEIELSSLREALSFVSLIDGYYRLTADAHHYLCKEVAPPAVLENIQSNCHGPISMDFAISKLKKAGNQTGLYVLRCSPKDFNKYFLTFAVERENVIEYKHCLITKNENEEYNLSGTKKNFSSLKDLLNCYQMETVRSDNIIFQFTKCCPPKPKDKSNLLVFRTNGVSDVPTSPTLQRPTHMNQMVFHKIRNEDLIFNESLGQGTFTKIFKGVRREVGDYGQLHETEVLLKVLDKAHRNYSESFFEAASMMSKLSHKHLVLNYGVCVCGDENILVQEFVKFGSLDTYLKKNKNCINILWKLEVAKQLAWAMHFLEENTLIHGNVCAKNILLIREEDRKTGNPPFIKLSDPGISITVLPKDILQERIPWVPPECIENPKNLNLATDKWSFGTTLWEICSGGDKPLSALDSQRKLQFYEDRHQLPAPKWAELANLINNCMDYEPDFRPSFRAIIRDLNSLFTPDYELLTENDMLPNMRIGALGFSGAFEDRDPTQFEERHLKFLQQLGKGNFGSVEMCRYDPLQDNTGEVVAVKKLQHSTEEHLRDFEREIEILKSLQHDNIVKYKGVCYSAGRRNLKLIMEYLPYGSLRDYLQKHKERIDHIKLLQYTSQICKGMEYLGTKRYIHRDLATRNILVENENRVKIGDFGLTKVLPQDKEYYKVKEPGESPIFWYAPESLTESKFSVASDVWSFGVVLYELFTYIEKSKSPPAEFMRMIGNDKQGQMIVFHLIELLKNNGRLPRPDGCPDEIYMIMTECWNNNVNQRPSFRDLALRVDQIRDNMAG

[16] = target: Adenosine receptor A2a (Homo sapiens, UniProt P29274); assay: Binding affinity to adenosine receptor A2a (unknown origin) assessed as inhibition constant
Chain of Adenosine receptor A2a (P29274 whole entry): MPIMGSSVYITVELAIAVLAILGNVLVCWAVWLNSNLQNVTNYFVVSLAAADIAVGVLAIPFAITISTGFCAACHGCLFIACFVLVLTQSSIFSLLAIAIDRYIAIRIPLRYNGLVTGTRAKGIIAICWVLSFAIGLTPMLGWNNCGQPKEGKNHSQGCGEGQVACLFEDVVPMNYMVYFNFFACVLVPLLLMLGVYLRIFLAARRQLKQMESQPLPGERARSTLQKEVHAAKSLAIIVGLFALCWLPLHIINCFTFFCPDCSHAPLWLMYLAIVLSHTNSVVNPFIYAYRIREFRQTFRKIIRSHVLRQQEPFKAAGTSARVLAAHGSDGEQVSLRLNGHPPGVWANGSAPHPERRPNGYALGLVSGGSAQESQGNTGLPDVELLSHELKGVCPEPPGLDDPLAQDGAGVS

[17] = target: T4, Adenosine receptor A1 (Homo sapiens, UniProt P30542); assay: Binding affinity to adenosine receptor A1 (unknown origin) assessed as inhibition constant
T4 sequence (P30542 whole entry): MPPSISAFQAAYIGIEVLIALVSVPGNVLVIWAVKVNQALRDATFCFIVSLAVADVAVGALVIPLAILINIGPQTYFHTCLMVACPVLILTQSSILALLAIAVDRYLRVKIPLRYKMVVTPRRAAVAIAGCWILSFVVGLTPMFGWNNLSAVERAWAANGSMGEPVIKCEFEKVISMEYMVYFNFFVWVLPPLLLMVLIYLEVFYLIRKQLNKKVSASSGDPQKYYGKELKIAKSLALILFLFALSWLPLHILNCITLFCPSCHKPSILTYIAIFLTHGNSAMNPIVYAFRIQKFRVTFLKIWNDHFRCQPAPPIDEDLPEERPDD

[18] = target: T1, Macrophage colony-stimulating factor 1 receptor; assay: Inhibition of FMS (unknown origin)
[19] = target: Tyrosine-protein kinase BTK (Homo sapiens, UniProt Q06187); assay: Inhibition of BTK (unknown origin)
Chain of Tyrosine-protein kinase BTK (Q06187 whole entry): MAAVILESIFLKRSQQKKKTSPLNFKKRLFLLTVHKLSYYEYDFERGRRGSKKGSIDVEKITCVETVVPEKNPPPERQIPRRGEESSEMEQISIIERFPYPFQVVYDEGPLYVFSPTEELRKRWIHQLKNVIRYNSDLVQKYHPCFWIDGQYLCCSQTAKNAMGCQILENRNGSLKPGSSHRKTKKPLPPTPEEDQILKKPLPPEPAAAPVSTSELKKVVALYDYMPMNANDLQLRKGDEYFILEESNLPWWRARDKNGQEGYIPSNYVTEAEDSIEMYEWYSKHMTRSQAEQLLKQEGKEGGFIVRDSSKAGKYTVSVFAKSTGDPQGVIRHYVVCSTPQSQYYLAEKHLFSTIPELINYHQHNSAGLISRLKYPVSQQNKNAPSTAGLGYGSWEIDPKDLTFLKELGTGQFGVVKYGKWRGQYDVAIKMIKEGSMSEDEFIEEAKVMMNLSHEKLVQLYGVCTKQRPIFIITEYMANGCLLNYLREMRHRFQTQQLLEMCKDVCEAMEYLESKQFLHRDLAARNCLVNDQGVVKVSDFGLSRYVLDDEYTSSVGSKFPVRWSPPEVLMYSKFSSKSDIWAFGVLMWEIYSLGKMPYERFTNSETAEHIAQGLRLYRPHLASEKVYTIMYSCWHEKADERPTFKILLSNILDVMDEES

T1 sequence (P07333 whole entry): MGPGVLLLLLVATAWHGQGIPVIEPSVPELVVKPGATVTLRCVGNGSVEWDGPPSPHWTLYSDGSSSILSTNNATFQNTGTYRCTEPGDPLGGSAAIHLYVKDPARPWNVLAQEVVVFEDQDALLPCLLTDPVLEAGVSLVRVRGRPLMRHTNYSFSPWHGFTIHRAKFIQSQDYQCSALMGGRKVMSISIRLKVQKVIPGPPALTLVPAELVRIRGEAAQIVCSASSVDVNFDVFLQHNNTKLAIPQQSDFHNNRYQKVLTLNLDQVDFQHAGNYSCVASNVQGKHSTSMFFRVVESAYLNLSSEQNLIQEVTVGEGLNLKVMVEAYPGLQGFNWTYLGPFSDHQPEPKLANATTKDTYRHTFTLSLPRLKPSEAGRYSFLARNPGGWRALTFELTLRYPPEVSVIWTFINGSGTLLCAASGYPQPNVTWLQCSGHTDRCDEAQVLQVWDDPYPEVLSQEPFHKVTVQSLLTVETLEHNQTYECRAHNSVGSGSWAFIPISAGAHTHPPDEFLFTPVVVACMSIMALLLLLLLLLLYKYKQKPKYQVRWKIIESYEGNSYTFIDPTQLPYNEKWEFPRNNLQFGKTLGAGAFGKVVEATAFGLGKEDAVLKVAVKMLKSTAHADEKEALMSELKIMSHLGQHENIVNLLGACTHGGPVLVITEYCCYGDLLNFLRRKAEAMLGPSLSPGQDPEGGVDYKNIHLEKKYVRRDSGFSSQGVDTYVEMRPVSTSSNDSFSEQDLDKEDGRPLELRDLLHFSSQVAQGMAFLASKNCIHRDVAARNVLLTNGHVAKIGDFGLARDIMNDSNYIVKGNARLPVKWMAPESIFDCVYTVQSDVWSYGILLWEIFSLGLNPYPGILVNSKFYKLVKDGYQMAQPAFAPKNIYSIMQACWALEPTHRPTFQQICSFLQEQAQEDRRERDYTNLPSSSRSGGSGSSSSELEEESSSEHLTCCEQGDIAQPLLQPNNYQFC

`O=C(NCc1ccc(C(F)(F)F)nc1)Nc1ccc(Oc2ncnc3[nH]ccc23)cc1` showed a pIC50 [1] of 7.70.

`C=CC(=O)N1CC[C@H](n2cc(-c3cc4ccccc4o3)c3c(N)n[nH]c(=O)c32)C1` was tested, and the pIC50 [2] was over 8.00, the pIC50 [3] was over 8.00 and the pIC50 [4] was over 8.00. The pIC50 [5] was over 8.00.

In the case of `COc1cncc(-c2cn(-c3c(F)ccc(NS(=O)(=O)C(C)C)c3F)nn2)c1`, the pEC50 [6] was 6.31.

Compound `CN(C)S(=O)(=O)Nc1cccc(-c2cnn(-c3ccc(C(F)(F)F)cc3)c2)c1` has a pIC50 [7] of 4.87, a pIC50 [8] of 5.74 and an inhibition [9] of 55%. The inhibition [10] was 45%, the inhibition [11] was 35% and the inhibition [12] was 35%. The inhibition [13] was 35% and the pIC50 [14] was 5.24.

Compound `CN(c1ncccc1CNc1c(C#N)cnc2[nH]ccc12)S(C)(=O)=O` has an inhibition [15] of 68%.

Work on `O=c1[nH]nc(NC2CCCC2)c2nnn(Cc3cccs3)c12` yielded a pKi [16] of 6.05 and a pKi [17] of 7.33.

Work on `COc1ncc(CNc2ccc(Cc3c[nH]c4ncc(C(F)(F)F)cc34)c(F)n2)cc1F` yielded a pIC50 [7] of over 7.00 and a pIC50 [18] of over 7.00.

`COc1ccc(F)cc1C(=O)NCc1ccc(-c2nn(C3CCCC3)c3c(=O)[nH]nc(N)c23)cc1` showed a pIC50 [19] of 9.30.

Compound `CNC(=O)c1ccccc1Nc1c(C(F)(F)F)cnc2[nH]c(-c3ccc(F)cc3)cc12` has an inhibition [15] of 88%.
